The nature of data set [1]: Caco-2 cell permeability assay. The format is in vitro ADME. The following applies: human, pH 7.4, approximate values; for efflux ratio at 2 h, 10 µM: Caco-2, Papp (B-A)/Papp (A-B); for Papp A→B at 2 h, 10 μM: Caco-2, apical to basolateral. As to the method:
A Caco-2 cell permeability assay can be used for in vitro prediction of drug permeability and absorption, an important feature for a compound to be useful for methods described herein. The apparent permeability (Papp) of the compounds of the present disclosure were determined in Caco-2 cells to measure the rate of drug transport per surface area of the cell membrane. Further the efflux ratios of the compounds of the present disclosure were measured in Caco-2 cells to determine the apparent permeability coefficient in basolateral to apical direction with respect to the apparent permeability coefficient in apical to basolateral direction.
50 μL and 25 mL of cell culture medium were added to each well of the Transwell insert and reservoir, respectively. The HTS transwell plates were incubated at 37° C., 5% CO2 for 1 hour before cell seeding. Caco-2 cells were diluted to 6.86×10^5 cells/mL with culture medium and 50 μL of cell suspension were dispensed into the filter well of the 96-well HTS Transwell plate. Cells were cultivated for 14-18 days in a cell culture incubator at 37° C., 5% CO295% relative humidity. Cell culture medium was replaced every other day, beginning no later than 24 hours after initial plating.
Medium was removed from the reservoir and each Transwell insert and replaced with prewarmed fresh culture medium. Transepithelial electrical resistance (TEER) across the monolayer was measured using Millicell Epithelial Volt-Ohm measuring system (Millipore, USA). The Plate was returned to the incubator once the measurement was done. The TEER value was calculated according to the following equation: TEER measurement (ohms)×Area of membrane (cm^2)=TEER value (ohm·cm^2).
To prepare the HBSS (25 mM HEPES, pH 7.4), accurately weigh 5.958 g of HEPES and 0.35 g sodium hydrogen carbonate and add into 900 mL of pure water, then sonicate to dissolve the content. Transfer 100 mL of 10× HBSS into the solution, and place the solution on a stirrer, slowly adjust pH with sodium hydrate to 7.4, following with filtering. Add 6 μL of stock solution (10 mM) of test compound or control compound to 24 μL of DMSO into the same well to obtain 2 mM stock solutions. Transfer 3 μL of 2 mM solution into 597 μL of transport buffer in one 96 well plate to prepare the 10 μM compound working solution. Shake the plate at 1000 rpm for 10 min. The final concentration of DMSO in the incubation system was 0.5%. Metoprolol, erythromycin, and cimetidine were used as control compounds.
Assays can be conducted using Caco-2 cells to assay transport of a compound or composition For example, Caco-2 plates prepared as described above were removed from the incubator. Monolayers were washed twice with pre-warmed HBSS (25 mM HEPES, pH 7.4), then the plates were incubated at 37° C. for 30 minutes. To determine the rate of drug transport in the apical to basolateral direction, 108 μL of the working solution was added to the Transwell insert (apical compartment), and 8 μL sample was immediately transferred from the apical compartment to 72 μL transport buffer and 240 μL of acetonitrile containing IS (100 nM alprazolam, 200 nM caffeine and 100 nM tolbutamide) in a new 96-well plate as the initial donor sample (A-B). The samples were then vortexed at 1000 rpm for 10 minutes. The wells in the receiver plate (basolateral compartment) were filled with 300 μL of transport buffer. To determine the rate of drug transport in the basolateral to apical direction, 308 μL of the working solution were added to the receiver plate wells (basolateral compartment), and 8 μL sample was immediately transferred from the basolateral compartment to 72 μL transport buffer and 240 μL of acetonitrile containing IS (100 nM alprazolam, 200 nM caffeine and 100 nM tolbutamide) into a new 96-well plate as the initial donor sample (B-A), then Vortexed at 1000 rpm for 10 minutes. The Transwell insert (apical compartment) was filled with 100 μL of transport buffer. […]
For orientation: Passage across Caco-2 layers is used to estimate intestinal permeability.

In the next data set the target is Foxo-1 (Homo sapiens, UniProt Q12778). The following applies: from Molecular Pharmacology (2010), 78(5), 961-970; approximate values; read-out: Potency Foxo-1; cited from earlier work.
Chain of Foxo-1 (Q12778 whole entry, species assumed): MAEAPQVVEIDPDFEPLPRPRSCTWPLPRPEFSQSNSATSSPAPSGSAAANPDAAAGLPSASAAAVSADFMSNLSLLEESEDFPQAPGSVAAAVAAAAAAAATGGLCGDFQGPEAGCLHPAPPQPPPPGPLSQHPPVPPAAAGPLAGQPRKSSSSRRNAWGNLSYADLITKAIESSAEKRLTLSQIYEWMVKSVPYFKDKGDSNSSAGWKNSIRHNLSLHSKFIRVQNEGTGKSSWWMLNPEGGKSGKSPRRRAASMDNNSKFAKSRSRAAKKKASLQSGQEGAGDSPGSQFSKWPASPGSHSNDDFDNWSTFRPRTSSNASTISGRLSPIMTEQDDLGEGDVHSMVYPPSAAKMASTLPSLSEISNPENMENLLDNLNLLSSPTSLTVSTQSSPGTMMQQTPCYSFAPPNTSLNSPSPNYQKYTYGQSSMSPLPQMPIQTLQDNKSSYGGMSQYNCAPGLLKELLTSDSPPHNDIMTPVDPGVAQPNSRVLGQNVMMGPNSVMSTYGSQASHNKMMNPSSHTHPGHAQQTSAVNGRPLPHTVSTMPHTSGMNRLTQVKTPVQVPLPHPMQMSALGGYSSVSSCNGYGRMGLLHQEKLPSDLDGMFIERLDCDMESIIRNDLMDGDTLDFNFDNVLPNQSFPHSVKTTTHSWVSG
Data set [2] is described as follows: Thermodynamic aqueous solubility at pH 7.4. The format is physicochemical. The following applies: aqueous buffer, thermodynamic from solid, phosphate buffer pH 7.4, 25° C., approximate values, read-out: Concentration (thermodynamic aqueous solubility). As to the method:
The aqueous thermodynamic solubilities of the compounds of the present disclosure were measured at pH 7.4.
Determining suitability for use of a compound, e.g., as a therapeutic agent can include determining the thermodynamic solubility of the compound. An example of this determination follows: Accurately weigh about 1 mg of the powder of each compound into a glass insert vial and phosphate buffer into each vial of a capless Solubility Sample plate with the volume of 1 mL per mg. Next, add one stir stick to each vial and seal with a molded PTDE/SIL 96-Well Plate Cover. Transfer the Solubility Sample plate to an Eppendorf Thermomixer Comfort plate shaker and shake the plate at 25° C. at 1,100 rpm for 24 hours. At the end of the incubation, open the cover and remove the stir sticks using a big magnet and transfer the samples from the Solubility Sample plate into the filter plate. Using the vacuum manifold, all the samples were filtered. An aliquot of 100 μL was transferred from filtrate to a new 96-well plate by addition of 900 μL of a mixture of H2O and acetonitrile containing an internal standard (1:1) (10 fold) and 10 μL of the diluted solution was pipetted into a new 96-well plate by addition of 990 μL of a mixture of H2O and acetonitrile containing internal standard (1:1) (1,000 fold). The dilution factor may be changed according to the solubility value and the LC/MS signal response.
To prepare standards for the assay, accurately weigh about 1 mg of the powder of each compound into a glass insert vial, add DMSO into each vial of the Standard Plate with the volume of 1 mL per mg to obtain the 1 mg/mL STD sample. Aliquots of 10 μL were taken from 1 mg/mL STD sample to a new 96-well plate followed by addition of 990 μL of a mixture of H2O and acetonitrile containing internal standard (1:1) to obtain 10 μg/mL STD and then 10 μL aliquots were taken from 10 μg/mL sample to a new 96-well plate followed by addition of 990 μL of a mixture of H2O and acetonitrile containing internal standard (1:1) to obtain 0.1 μg/mL STD. The concentration of the standard sample may be changed according to the LC/MS signal response.
The samples were analyzed and quantified against the standard of known concentration using LC/MS/MS. The solubility of the test compound was calculated as follows: [Sample]=Area Ratio sample×DF sample×[STD]/Area Ratio STD DF means the dilution factor. Any value of the compounds that is not within the specified limits was rejected and the experiment was repeated.

The values that follow come from patent US20230058189A1, “QUINOLIN-4-ONE AND 4(1H)-CINNOLINONE COMPOUNDS AND METHODS OF USING SAME” (Frequency Therapeutics, Inc., priority 2019, published 2023).

The structures appear in SMILES notation. Converted amounts (≈) assume the structure as drawn.

The efflux ratio is a quotient of directional permeabilities that is used to spot active efflux. Usually Papp A→B stands for how fast a substance crosses the layer from the apical side. A lower Papp A→B goes with poor permeation. On to `CCC(CC)n1cc(C(=O)O)c(=O)c2c(C)c(F)c(NC3CCCCC3)cc21` [Compound I-3], for which, in data set [1], the efflux ratio at 2 h, 10 µM turned out to be 0.27 and the Papp A→B at 2 h, 10 μM was determined as 3.3 ×10⁻⁶ cm/s. For the same compound, the IC50 at Foxo-1 was < 100 nM.

In the case of `CCn1cc(C(=O)O)c(=O)c2c(N)c(F)c(NC3CCCCC3)cc21` [Compound I-7], in data set [1], the efflux ratio at 2 h, 10 µM was 0.32 and the Papp A→B at 2 h, 10 μM was found to be 13 ×10⁻⁶ cm/s. Moreover, the solubility thermodynamic at 24 h in data set [2] was < 0.12 µM. In addition, the IC50 at Foxo-1 was < 100 nM.

For the compound `CCn1cc(C(=O)O)c(=O)c2c(N)c(F)c(NC3CCOCC3)cc21` [Compound I-8], in data set [1], the efflux ratio at 2 h, 10 µM worked out at 3.02 and the Papp A→B at 2 h, 10 μM is 11 ×10⁻⁶ cm/s. Moreover, the solubility thermodynamic at 24 h in data set [2] is 35 µM (≈ 12.2 µg/mL).

On to `CCn1cc(C(=O)O)c(=O)c2c(N)c(F)c(NC3CCCC3)cc21` [Compound I-9], for which, in data set [1], the efflux ratio at 2 h, 10 µM was found to be 0.56 and the Papp A→B at 2 h, 10 μM is 3.4 ×10⁻⁶ cm/s. Also, the solubility thermodynamic at 24 h in data set [2] is < 1.8 µM.

For `CCn1cc(C(=O)O)c(=O)c2c(N)c(F)c(NC3Cc4ccccc4C3)cc21` [Compound I-11], in data set [1], the efflux ratio at 2 h, 10 µM is 0.53 and the Papp A→B at 2 h, 10 μM was determined as 5.5 ×10⁻⁶ cm/s. In addition, in data set [2], the solubility thermodynamic at 24 h is < 0.08 µM.

With `CCn1cc(C(=O)O)c(=O)c2c(N)c(F)c(NC3CCC3)cc21` [Compound I-12], in data set [1], the efflux ratio at 2 h, 10 µM came to 0.72 and the Papp A→B at 2 h, 10 μM was found to be 21 ×10⁻⁶ cm/s. For the same compound, in data set [2], the solubility thermodynamic at 24 h was 2.7 µM (≈ 0.862 µg/mL).

As to `CCn1cc(C(=O)O)c(=O)c2c(N)c(F)c(NC3CC3)cc21` [Compound I-15], in data set [1], the efflux ratio at 2 h, 10 µM stood at 0.48 and the Papp A→B at 2 h, 10 μM was 38 ×10⁻⁶ cm/s. The solubility thermodynamic at 24 h in data set [2] was 2.4 µM (≈ 0.733 µg/mL).

As to `CCn1cc(C(=O)O)c(=O)c2c(N)c(F)c(Nc3ccccc3)cc21` [Compound I-16], in data set [1], the efflux ratio at 2 h, 10 µM was 0.6 and the Papp A→B at 2 h, 10 μM was found to be 17 ×10⁻⁶ cm/s. Moreover, the solubility thermodynamic at 24 h in data set [2] is 1.1 µM (≈ 0.375 µg/mL).

`CCn1cc(C(=O)O)c(=O)c2c(N)c(F)c(NCc3ccccc3)cc21` [Compound I-17]: in data set [1], the efflux ratio at 2 h, 10 µM worked out at 0.45 and the Papp A→B at 2 h, 10 μM was 23 ×10⁻⁶ cm/s. For the same compound, the solubility thermodynamic at 24 h in data set [2] was found to be 0.11 µM (≈ 0.0391 µg/mL).

For the compound `CCn1cc(C(=O)O)c(=O)c2c(N)c(F)c(NCCc3ccccc3)cc21` [Compound I-18], in data set [1], the efflux ratio at 2 h, 10 µM amounted to 0.66 and the Papp A→B at 2 h, 10 μM amounted to 11 ×10⁻⁶ cm/s. Moreover, in data set [2], the solubility thermodynamic at 24 h amounted to 0.12 µM (≈ 0.0443 µg/mL).

With `CCn1cc(C(=O)O)c(=O)c2c(N)c(F)c(NCCCc3ccccc3)cc21` [Compound I-19], in data set [1], the efflux ratio at 2 h, 10 µM worked out at 0.38 and the Papp A→B at 2 h, 10 μM turned out to be 5.9 ×10⁻⁶ cm/s. Moreover, the solubility thermodynamic at 24 h in data set [2] was < 0.03 µM.

`CCn1cc(C(=O)O)c(=O)c2c(N)cc(NCCCc3ccccc3)cc21` [Compound I-57]: in data set [1], the efflux ratio at 2 h, 10 µM came out at 0.4 and the Papp A→B at 2 h, 10 μM turned out to be 7.1 ×10⁻⁶ cm/s. Moreover, the solubility thermodynamic at 24 h in data set [2] is < 0.03 µM.

With `CCn1cc(C(=O)O)c(=O)c2c(N)c(F)c(N[C@H]3C[C@H](c4ccccc4)C3)cc21` [Compound I-60], in data set [1], the efflux ratio at 2 h, 10 µM stood at 0.5 and the Papp A→B at 2 h, 10 μM came out at 0.32 ×10⁻⁶ cm/s. Also, in data set [2], the solubility thermodynamic at 24 h is < 10 µM.

For the compound `CCn1cc(C(=O)O)c(=O)c2c(N)c(F)c(N[C@H]3C[C@@H](c4ccccc4)C3)cc21` [Compound I-61], in data set [1], the efflux ratio at 2 h, 10 µM worked out at 0.85 and the apparent permeability from apical to basolateral (Papp A→B) at 2 h, 10 μM was found to be 0.11 ×10⁻⁶ cm/s. The solubility thermodynamic at 24 h in data set [2] is < 0.002 µM.

On to `CCn1cc(C(N)=O)c(=O)c2c(N)c(F)c(NCCc3ccccc3)cc21` [Compound I-66], for which, in data set [1], the efflux ratio at 2 h, 10 µM came out at 58 and the Papp A→B at 2 h, 10 μM amounted to 1.8 ×10⁻⁶ cm/s. In data set [2], the solubility thermodynamic at 24 h came out at 0.06 µM (≈ 0.0221 µg/mL).

As for `CCn1cc(C#N)c(=O)c2c(N)c(F)c(NCCc3ccccc3)cc21` [Compound I-67], in data set [1], the efflux ratio at 2 h, 10 µM stood at 0.24 and the Papp A→B at 2 h, 10 μM is 2.2 ×10⁻⁶ cm/s. In data set [2], the solubility thermodynamic at 24 h amounted to 0.23 µM (≈ 0.0806 µg/mL).

As to `CCn1cc(-c2nnn[nH]2)c(=O)c2c(N)c(F)c(NCCc3ccccc3)cc21` [Compound I-68], in data set [1], the efflux ratio at 2 h, 10 µM worked out at 0.63 and the Papp A→B at 2 h, 10 μM was 0.06 ×10⁻⁶ cm/s. The solubility thermodynamic at 24 h in data set [2] was 0.03 µM (≈ 0.0118 µg/mL).

On to `CCn1cc(C(=O)O)c(=O)c2c(N)c(F)c(NC3CN(c4ccccc4)C3)cc21` [Compound I-69], for which, in data set [1], the efflux ratio at 2 h, 10 µM came out at 0.78 and the Papp A→B at 2 h, 10 μM came out at 4.6 ×10⁻⁶ cm/s. The solubility thermodynamic at 24 h in data set [2] is < 0.03 µM.
